Patent US9365571B2, “Piperidino-pyrimidine derivatives for the treatment of viral infections” (Janssen Sciences Ireland UC, priority 2012, dated 2016)

Assays:
Assay type in all cases: cell-based
PBMC-IFNa = experiment: PBMC-IFNa; conditions: Table IIC; lowest effective concentration; read-out: PBMC-IFNa (LEC)
human TLR8 = experiment: TLR8 cellular NFκB-luc reporter assay in transiently transfected HEK293 cells; conditions: Table IIC, lowest effective concentration, 6 hours incubation
Description: (§1) The ability of compounds to activate human TLR7 and/or TLR8 was assessed in a cellular reporter assay using HEK293 cells transiently transfected with a TLR7 or TLR8 expression vector and NFκB-luc reporter construct. In one instance the TLR expression construct expresses the respective wild type sequence or a mutant sequence comprising a deletion in the second leucine-rich repeat of the TLR.
(§2) Briefly, HEK293 cells were grown in culture medium (DMEM supplemented with 10% FCS and 2 mM Glutamine). For transfection of cells in 10 cm dishes, cells were detached with Trypsin-EDTA, transfected with a mix of CMV-TLR7 or TLR8 plasmid (750 ng), NFκB-luc plasmid (375 ng) and a transfection reagent and incubated overnight at 37° C. in a humidified 5% CO2 atmosphere. Transfected cells were then detached with Trypsin-EDTA, washed in PBS and resuspended in medium to a density of 1.67×10^5 cells/mL. Thirty microliters of cells were then dispensed into each well in 384-well plates, where 10 μL of compound in 4% DMSO was already present. Following 6 hours incubation at 37° C., 5% CO2, the luciferase activity was determined by adding 15 μl of Steady Lite Plus substrate (Perkin Elmer) to each well and readout performed on a ViewLux ultraHTS microplate imager (Perkin Elmer). Dose response curves were generated from measurements performed in quadruplicates. Lowest effective concentrations (LEC) values, defined as the concentration that induces an effect which is at least two fold above the standard deviation of the assay, were determined for each compound.

human TLR7 = experiment: TLR7 cellular NFκB-luc reporter assay in transiently transfected HEK293 cells; conditions: Table IIC, lowest effective concentration, 6 hours incubation
Description: as §1, §2

Compound	minimal effective concentration (PBMC-IFNa)	Human TLR8 (LEC, μM) (human TLR8)	Human TLR7 (LEC, μM) (human TLR7)
CCCCNc1nc(N)nc2c1CCN(C(=O)c1csnn1)C2 [Compound 27]	1.2 µM	1.9 µM	>25 µM
CCCCNc1nc(N)nc2c1CCN(C(=O)c1ccncc1)C2 [Compound 28]	1.9 µM	2.2 µM	8.6 µM
CCCCNc1nc(N)nc2c1CCN(C(=O)C1CCOCC1)C2 [Compound 29]	8.7 µM	7.5 µM	>25 µM
CCCCNc1nc(N)nc2c1CCN(C(=O)CC)C2 [Compound 30]	0.5 µM	0.5 µM	5.0 µM
CCCCNc1nc(N)nc2c1CN(C(=O)C1CCOCC1)CC2 [Compound 31]	1.3 µM	0.6 µM	7.7 µM
CCCCNc1nc(N)nc2c1CN(C(=O)CC#N)CC2 [Compound 32]	0.9 µM	0.6 µM	7.1 µM
CCCCNc1nc(N)nc2c1CN(C(=O)c1ccsc1)CC2 [Compound 33]	0.2 µM	0.2 µM	0.3 µM
CCCCNc1nc(N)nc2c1CN(C(=O)c1cc(C)on1)CC2 [Compound 34]	0.2 µM	0.4 µM	0.8 µM
CCCCNc1nc(N)nc2c1CN(C(=O)c1cocn1)CC2 [Compound 35]	0.2 µM	0.2 µM	0.7 µM
CCCCNc1nc(N)nc2c1CCN(C(=O)c1cocn1)C2 [Compound 36]	0.6 µM	0.9 µM	4.7 µM
CCCCNc1nc(N)nc2c1CCN(C(=O)c1nccc3ccccc13)C2 [Compound 37]	1.8 µM	1.7 µM	7.2 µM
CCCCNc1nc(N)nc2c1CCN(C(=O)c1cc(C)on1)C2 [Compound 38]	0.6 µM	0.8 µM	5.2 µM
CCC[C@@H](CCO)Nc1nc(N)nc2c1CN(C(=O)c1ccccc1)CC2 [Compound 39]	0.5 µM	4.2 µM	2.5 µM
CCC[C@@H](CCO)Nc1nc(N)nc2c1CN(C(=O)c1cscn1)CC2 [Compound 40]	0.2 µM	4.5 µM	2.2 µM
CCC[C@@H](CCO)Nc1nc(N)nc2c1CN(C(=O)c1ccco1)CC2 [Compound 41]	0.1 µM	0.4 µM	0.4 µM
CCC[C@@H](CCO)Nc1nc(N)nc2c1CN(C(=O)c1csc(C)n1)CC2 [Compound 42]	0.2 µM	2.1 µM	2.2 µM
CCCC[C@@H](CCO)Nc1nc(N)nc2c1CN(C(=O)c1ccco1)CC2 [Compound 43]	0.04 µM	0.7 µM	0.1 µM
CCCC[C@@H](CCO)Nc1nc(N)nc2c1CN(C(=O)c1csc(C)n1)CC2 [Compound 44]	0.2 µM	6.6 µM	1.0 µM
CCCC[C@@H](CCO)Nc1nc(N)nc2c1CN(C(=O)c1cccs1)CC2 [Compound 45]	0.2 µM	1.7 µM	0.2 µM
CCCC[C@@H](CCO)Nc1nc(N)nc2c1CN(C(=O)c1cscn1)CC2 [Compound 46]	0.2 µM	3.5 µM	0.6 µM
CCC[C@@H](CCO)Nc1nc(N)nc2c1CN(C(=O)c1cccs1)CC2 [Compound 47]	0.2 µM	1.1 µM	0.2 µM
CCCC[C@@H](CCO)Nc1nc(N)nc2c1CN(C(=O)c1ccccc1)CC2 [Compound 48]	0.3 µM	3.9 µM	1.2 µM
CCC[C@@H](CCO)Nc1nc(N)nc2c1CCN(C(=O)c1cccn1C)C2 [Compound 49]	0.3 µM	4.0 µM	2.7 µM
CCCC[C@@H](CCO)Nc1nc(N)nc2c1CCN(C(=O)c1cccn1C)C2 [Compound 50]	0.3 µM	3.9 µM	1.7 µM
CCCC[C@@H](CCO)Nc1nc(N)nc2c1CN(C(=O)c1cccn1C)CC2 [Compound 51]	0.1 µM	0.4 µM	0.5 µM
CCC[C@@H](CCO)Nc1nc(N)nc2c1CCN(C(=O)c1ccncc1)C2 [Compound 52]	–	15 µM	12.1 µM
